From the NIST ThermoML archive (doi:10.1021/je050288d)

Details: Gas

O [water]
Details	viscosity [mPa·s]
366.96 K, Mass density=0.0793 kg/m3	0.01211
367.03 K, Mass density=0.0402 kg/m3	0.01212
367.1 K, Mass density=0.0668 kg/m3	0.0121
367.84 K, Mass density=0.0186 kg/m3	0.01216
368.22 K, Mass density=0.0368 kg/m3	0.01216
380.42 K, Mass density=0.0247 kg/m3	0.0126
380.43 K, Mass density=0.1973 kg/m3	0.01257
380.59 K, Mass density=0.0668 kg/m3	0.01259
380.6 K, Mass density=0.1654 kg/m3	0.01258
380.8 K, Mass density=0.0186 kg/m3	0.01263
381.09 K, Mass density=0.0402 kg/m3	0.01263
381.09 K, Mass density=0.0793 kg/m3	0.01263
381.33 K, Mass density=0.1081 kg/m3	0.01263
381.7 K, Mass density=0.2351 kg/m3	0.01262
382.14 K, Mass density=0.0368 kg/m3	0.01268
393.95 K, Mass density=0.1654 kg/m3	0.01309
394.29 K, Mass density=0.0668 kg/m3	0.0131
394.39 K, Mass density=0.0186 kg/m3	0.01314
394.43 K, Mass density=0.1973 kg/m3	0.0131
394.48 K, Mass density=0.2351 kg/m3	0.01311
394.72 K, Mass density=0.0247 kg/m3	0.01313
395 K, Mass density=0.1081 kg/m3	0.01314
395.38 K, Mass density=0.0402 kg/m3	0.01316
395.87 K, Mass density=0.0793 kg/m3	0.01319
396.61 K, Mass density=0.0368 kg/m3	0.01322
408.3 K, Mass density=0.1654 kg/m3	0.01365
408.32 K, Mass density=0.0668 kg/m3	0.01364
408.34 K, Mass density=0.2351 kg/m3	0.01365
408.76 K, Mass density=0.1973 kg/m3	0.01366
408.87 K, Mass density=0.0186 kg/m3	0.01369
409.37 K, Mass density=0.1081 kg/m3	0.01369
409.39 K, Mass density=0.0793 kg/m3	0.0137
409.46 K, Mass density=0.0402 kg/m3	0.01369
409.76 K, Mass density=0.0247 kg/m3	0.01371
411.18 K, Mass density=0.0368 kg/m3	0.01379
422.56 K, Mass density=0.2351 kg/m3	0.01421
422.69 K, Mass density=0.1654 kg/m3	0.01422
422.72 K, Mass density=0.0668 kg/m3	0.0142
422.75 K, Mass density=0.0247 kg/m3	0.01422
422.94 K, Mass density=0.1973 kg/m3	0.01422
423.26 K, Mass density=0.0186 kg/m3	0.01424
423.44 K, Mass density=0.0793 kg/m3	0.01425
423.62 K, Mass density=0.1081 kg/m3	0.01425
423.7 K, Mass density=0.0402 kg/m3	0.01426
423.8 K, Mass density=0.0368 kg/m3	0.01428
437.27 K, Mass density=0.2351 kg/m3	0.01482
437.71 K, Mass density=0.1654 kg/m3	0.01483
437.84 K, Mass density=0.1973 kg/m3	0.01484
438.04 K, Mass density=0.0668 kg/m3	0.01481
438.05 K, Mass density=0.1081 kg/m3	0.01483
438.48 K, Mass density=0.0368 kg/m3	0.01487
438.71 K, Mass density=0.0793 kg/m3	0.01486
438.77 K, Mass density=0.0186 kg/m3	0.01485
438.99 K, Mass density=0.0402 kg/m3	0.01486
440.41 K, Mass density=0.0247 kg/m3	0.01492
